Data reported in patent US20050222085A1, “Quaternised ammonium cyclodextrin compounds” (priority 2002, published 2005).

Assays:
Assay in all cases: Preservative effectiveness test
Format in all cases: cell-based
[1] = test system: Staphyloccocus aureus ATCC 6538; conditions: same solution
Procedure: (§1) 0.2 g of QA-beta-CD (QA-beta-CD=3-(trimethylammonio)-2-hydroxypropyl-beta-cyclodextrin chloride, empiric formula: (C6H10-nO5)7(C6H15ONCl)n n=2-5. are added to 170 ml water (nanopure). Then 10.10 g of Sorbitol and 0.2 g of Disodium edetate are added and the pH is adjusted to a value of 7.0-7.4 and water added to make up 200 ml of resulting solution. The solution is filtered through a Corning bottle top filter unit 0.22 μm CA under sterile conditions. The solution has a pH of 7.35 and an osmolality of 307 mOsm/kg (270-330).
(§2) Samples of the solution are inoculated with Escherichia coli ATCC 8739; Pseudomonas aeruginosa ATCC 9027, Staphyloccocus aureus ATCC 6538; Candida albicans ATCC 10231 and Aspergillus niger ATCC 16404, respectively and assayed for presence/growth at the times given in Table 2.

[2] = test system: Candida albicans ATCC 10231; conditions: same solution
Procedure: as §1, §2

[3] = test system: Aspergillus niger ATCC 16404; conditions: Time 28 d; same solution
Procedure: as §1, §2

[4] = test system: Escherichia coli ATCC 8739; conditions: same solution
Procedure: as §1, §2

[5] = test system: Pseudomonas aeruginosa ATCC 9027; conditions: same solution
Procedure: as §1, §2

3-(trimethylammonio)-2-hydroxypropyl-beta-cyclodextrin chloride [QA-beta-CD]
2. 10^2: presence/growth of Aspergillus niger ATCC 16404 [3]
<10^2: presence/growth of Staphyloccocus aureus ATCC 6538 ([1]; Time 24 h) | presence/growth of Staphyloccocus aureus ATCC 6538 ([1]; Time 7 d) | presence/growth of Staphyloccocus aureus ATCC 6538 ([1]; Time 28 d) | presence/growth of Candida albicans ATCC 10231 ([2]; Time 7 d) | presence/growth of Candida albicans ATCC 10231 ([2]; Time 14 d) | presence/growth of Candida albicans ATCC 10231 ([2]; Time 28 d) | presence/growth of Escherichia coli ATCC 8739 ([4]; Time 6 h) | presence/growth of Escherichia coli ATCC 8739 ([4]; Time 24 h) | presence/growth of Escherichia coli ATCC 8739 ([4]; Time 7 d) | presence/growth of Escherichia coli ATCC 8739 ([4]; Time 28 d) | presence/growth of Pseudomonas aeruginosa ATCC 9027 ([5]; Time 6 h) | presence/growth of Pseudomonas aeruginosa ATCC 9027 ([5]; Time 24 h) | presence/growth of Pseudomonas aeruginosa ATCC 9027 ([5]; Time 7 d) | presence/growth of Pseudomonas aeruginosa ATCC 9027 ([5]; Time 28 d)
